# Activity calls are given as the source filed them. The rule behind the calls is not given here.
# Legend:
# MCF7 = test: Cytotoxicity against human MCF7 cells assessed as cell growth inhibition measured after 72 hrs by MTT assay; assay type: functional, cell-based; conditions: MCF7, 72 h
# Enterococcus faecium = test: Antibacterial activity against Enterococcus faecium ATCC19434 assessed as inhibition of bacterial growth incubated for 18 hrs by two-fold serial dilution method; assay type: functional
# HepG2 = test: Cytotoxicity against human HepG2 cells assessed as cell growth inhibition measured after 72 hrs by MTT assay; assay type: functional, cell-based; conditions: HepG2, 72 h
# HGC-27 = test: Cytotoxicity against human HGC-27 cells assessed as cell growth inhibition measured after 72 hrs by MTT assay; assay type: functional, cell-based; conditions: HGC-27, 72 h
# [1] = test system: Staphylococcus epidermidis; test: Antibacterial activity against Staphylococcus epidermidis ATCC12228 assessed as inhibition of bacterial growth incubated for 18 hrs by two-fold serial dilution method; assay type: functional
# U-87 MG = test: Cytotoxicity against human U87 cells assessed as cell growth inhibition measured after 72 hrs by MTT assay; assay type: functional, cell-based, U-87MG ATCC
# HT-29 = test: Cytotoxicity against human HT-29 cells assessed as cell growth inhibition measured after 72 hrs by MTT assay; assay type: functional, cell-based; conditions: HT-29, 72 h
# [2] = test system: Mycoplasmoides pneumoniae; test: Antibacterial activity against Mycoplasma pneumoniae ATCC29342 assessed as inhibition of bacterial growth incubated for 18 hrs by two-fold serial dilution method; assay type: functional
# [3] = test system: Mycoplasmoides pneumoniae; test: Antibacterial activity against Mycoplasma pneumoniae ATCC15531 assessed as inhibition of bacterial growth incubated for 18 hrs by two-fold serial dilution method; assay type: functional
# Staphylococcus aureus [4] = test: Antibacterial activity against methicillin-resistant Staphylococcus aureus ATCC 43300 assessed as inhibition of bacterial growth incubated for 18 hrs by two-fold serial dilution method; assay type: functional
# Staphylococcus aureus [5] = test: Antibacterial activity against methicillin-sensitive Staphylococcus aureus ATCC 29213 assessed as inhibition of bacterial growth incubated for 18 hrs by two-fold serial dilution method; assay type: functional
# [6] = test system: Mycoplasmoides pneumoniae; test: Antibacterial activity against drug resistant Mycoplasma pneumoniae assessed as inhibition of bacterial growth incubated for 18 hrs by two-fold serial dilution method; assay type: functional
# Staphylococcus aureus [7] = test: Bactericidal activity against methicillin-resistant Staphylococcus aureus ATCC 43300 assessed as decrease in bacterial propagation at 2 to 8 times MIC and measured after 24 hrs by time kill curve assay relative to control; assay type: functional, organism-based
# Staphylococcus aureus [8] = test: Bactericidal activity against methicillin-resistant Staphylococcus aureus ATCC 43300 at 4 times MIC and measured after 24 hrs by time kill curve assay relative to control; assay type: functional, organism-based
SMILES,IC50 (MCF7),MIC (Enterococcus faecium),IC50 (HepG2),IC50 (HGC-27),MIC [1],IC50 (U-87 MG),IC50 (HT-29),MIC [2],MIC [3],MIC (Staphylococcus aureus [4]),MIC (Staphylococcus aureus [5]),MIC [6],Activity (Staphylococcus aureus [7]),Activity (Staphylococcus aureus [8])
C=C[C@]1(C)C[C@@H](OC(=O)CNC(=O)Nc2ccc(Br)cc2)[C@]2(C)[C@H](C)CC[C@]3(CCC(=O)[C@H]32)[C@@H](C)[C@@H]1O,> 10 µM,8 µg/mL,> 10 µM,> 10 µM,> 64 µg/mL,> 10 µM,> 10 µM,0.5 µg/mL,1 µg/mL,,,,,
C=C[C@]1(C)C[C@@H](OC(=O)CO)[C@]2(C)[C@H](C)CC[C@]3(CCC(=O)[C@H]32)[C@@H](C)[C@@H]1O [PLEUROMULIN],,32 µg/mL,,,16 µg/mL,,,0.0625 µg/mL,0.125 µg/mL,2 µg/mL,1 µg/mL,0.25 µg/mL,,
C=C[C@]1(C)C[C@@H](OC(=O)CNC(=O)Nc2cccc(Br)c2)[C@]2(C)[C@H](C)CC[C@]3(CCC(=O)[C@H]32)[C@@H](C)[C@@H]1O,> 10 µM,4 µg/mL,> 10 µM,3.95 µM,> 64 µg/mL,> 10 µM,> 10 µM,0.25 µg/mL,0.25 µg/mL,0.25 µg/mL,0.0625 µg/mL,1 µg/mL,,
C=C[C@]1(C)C[C@@H](OC(=O)CNC(=O)Nc2ccc(F)cc2)[C@]2(C)[C@H](C)CC[C@]3(CCC(=O)[C@H]32)[C@@H](C)[C@@H]1O,> 10 µM,16 µg/mL,> 10 µM,> 10 µM,> 64 µg/mL,> 10 µM,> 10 µM,0.125 µg/mL,0.25 µg/mL,0.125 µg/mL,0.5 µg/mL,1 µg/mL,,
C=C[C@]1(C)C[C@@H](OC(=O)CNC(=O)Nc2ccc(OC)cc2)[C@]2(C)[C@H](C)CC[C@]3(CCC(=O)[C@H]32)[C@@H](C)[C@@H]1O,> 10 µM,8 µg/mL,> 10 µM,> 10 µM,> 64 µg/mL,> 10 µM,> 10 µM,0.0625 µg/mL,0.125 µg/mL,0.5 µg/mL,0.0625 µg/mL,0.5 µg/mL,Active,
C=C[C@]1(C)C[C@@H](OC(=O)CNC(=O)Nc2ccccc2Br)[C@]2(C)[C@H](C)CC[C@]3(CCC(=O)[C@H]32)[C@@H](C)[C@@H]1O,> 10 µM,32 µg/mL,> 10 µM,> 10 µM,> 64 µg/mL,> 10 µM,> 10 µM,0.5 µg/mL,0.5 µg/mL,0.25 µg/mL,0.25 µg/mL,2 µg/mL,,
C=C[C@]1(C)C[C@@H](OC(=O)CNC(=O)Nc2ccc(F)cc2F)[C@]2(C)[C@H](C)CC[C@]3(CCC(=O)[C@H]32)[C@@H](C)[C@@H]1O,> 10 µM,16 µg/mL,> 10 µM,> 10 µM,> 64 µg/mL,> 10 µM,> 10 µM,0.125 µg/mL,0.25 µg/mL,0.25 µg/mL,0.25 µg/mL,1 µg/mL,,
C=C[C@]1(C)C[C@@H](OC(=O)CNC(=O)Nc2ccc(Cl)cc2)[C@]2(C)[C@H](C)CC[C@]3(CCC(=O)[C@H]32)[C@@H](C)[C@@H]1O,> 10 µM,16 µg/mL,> 10 µM,> 10 µM,> 64 µg/mL,> 10 µM,> 10 µM,,,0.25 µg/mL,0.25 µg/mL,,,
C=C[C@]1(C)C[C@@H](OC(=O)CNC(=O)NC(=O)c2cccc(F)c2)[C@]2(C)[C@H](C)CC[C@]3(CCC(=O)[C@H]32)[C@@H](C)[C@@H]1O,> 10 µM,16 µg/mL,> 10 µM,> 10 µM,> 64 µg/mL,> 10 µM,> 10 µM,,,0.25 µg/mL,0.5 µg/mL,,,
C=C[C@]1(C)C[C@@H](OC(=O)CNC(=O)Nc2cccc(Cl)c2)[C@]2(C)[C@H](C)CC[C@]3(CCC(=O)[C@H]32)[C@@H](C)[C@@H]1O,,8 µg/mL,,,> 64 µg/mL,,,,,0.5 µg/mL,1 µg/mL,,,
C=C[C@]1(C)C[C@@H](OC(=O)CSCCN(CC)CC)[C@]2(C)[C@H](C)CC[C@]3(CCC(=O)[C@H]32)[C@@H](C)[C@@H]1O [TIAMULIN],> 10 µM,16 µg/mL,> 10 µM,> 10 µM,32 µg/mL,> 10 µM,> 10 µM,,,0.25 µg/mL,0.5 µg/mL,,,Active
C=C[C@]1(C)C[C@@H](OC(=O)CNC(=S)Nc2ccc(C(F)(F)F)cc2)[C@]2(C)[C@H](C)CC[C@]3(CCC(=O)[C@H]32)[C@@H](C)[C@@H]1O,,8 µg/mL,,,> 64 µg/mL,,,,,1 µg/mL,1 µg/mL,,,
C=C[C@]1(C)C[C@@H](OC(=O)CNC(=O)NC(=O)c2ccccc2F)[C@]2(C)[C@H](C)CC[C@]3(CCC(=O)[C@H]32)[C@@H](C)[C@@H]1O,,8 µg/mL,,,> 64 µg/mL,,,> 8 µg/mL,1 µg/mL,0.5 µg/mL,0.5 µg/mL,2 µg/mL,,
C=C[C@]1(C)C[C@@H](OC(=O)CNC(=O)Nc2cccc3ccccc23)[C@]2(C)[C@H](C)CC[C@]3(CCC(=O)[C@H]32)[C@@H](C)[C@@H]1O,,16 µg/mL,,,> 64 µg/mL,,,,,2 µg/mL,2 µg/mL,,,
C=C[C@]1(C)C[C@@H](OC(=O)CNC(=S)NC(=O)c2ccc(F)cc2)[C@]2(C)[C@H](C)CC[C@]3(CCC(=O)[C@H]32)[C@@H](C)[C@@H]1O,,8 µg/mL,,,> 64 µg/mL,,,,,4 µg/mL,4 µg/mL,,,
C=C[C@]1(C)C[C@@H](OC(=O)CNC(=S)Nc2ccccc2)[C@]2(C)[C@H](C)CC[C@]3(CCC(=O)[C@H]32)[C@@H](C)[C@@H]1O,,16 µg/mL,,,> 64 µg/mL,,,,,1 µg/mL,1 µg/mL,,,
C=C[C@]1(C)C[C@@H](OC(=O)CNC(=S)Nc2ccccc2C)[C@]2(C)[C@H](C)CC[C@]3(CCC(=O)[C@H]32)[C@@H](C)[C@@H]1O,,16 µg/mL,,,> 64 µg/mL,,,,,2 µg/mL,4 µg/mL,,,
C=C[C@]1(C)C[C@@H](OC(=O)CNC(=S)Nc2ccc(F)cc2)[C@]2(C)[C@H](C)CC[C@]3(CCC(=O)[C@H]32)[C@@H](C)[C@@H]1O,,16 µg/mL,,,> 64 µg/mL,,,,,0.25 µg/mL,1 µg/mL,,,
